According to patent US20090030037A1, “Sustained Release Formulation and Dosing Schedules of Leukotriene Synthesis Inhibitor for Human Therapy” (deCODE Genetics ehf., priority 2005, published 2009):
Like-named read-outs stand apart in the source and are kept apart here.

Experiments:
Type in all cases: in vivo, human
MPO = assay: Study DG-031-204: plasma MPO; conditions: for Serum MPO (% change from baseline), mean response: after 4 weeks of DG-031 administration
Method: (§1) An additional single site, open label study was carried out to obtain biomarker and safety data on additional DG-031 doses (i.e., 1000 mg and 1500 mg). This study examined the safety, tolerability and dose-related effects of DG-031 on inflammatory biomarkers including: LTB4, hsCRP, and MPO. A total of 119 patients with a prior history of CAD and MI were randomized to receive either 1000 mg DG-031 (500 mg BID) or 1500 mg DG-031 (500 mg TID) daily for 4-6 weeks. Treatment with DG-031 in addition to the subject's standard care, medication, and treatment, was prescribed by the patient's cardiologist. A majority of the subjects received statin therapy before, during and after the study. Follow-up assessments were performed 2 weeks after the end of study drug administration.
The biomarkers were analyzed as described in Example 1. Statistical analysis of the data was carried out using a one-sample t-test on change from baseline with a two-sided nominal significance level of 0.050. Biomarker concentrations were log-transformed and a simple last observation carried forward (LOCF) scheme was used to impute missing observations.
Plasma MPO concentration was measured weekly. MPO measurements in ionomycin-stimulated whole blood were also measured in a subset of patients at 4 weeks.

[1] = Study DG-031-204: steady state DG-031 plasma concentrations; conditions: for concentration at 0 h / concentration at 0.5 h / concentration at 1 h / concentration at 2 h / concentration at 4 h / concentration at 6 h: human, plasma, oral, 500 mg, read-out: Steady state DG-031 exposure, Geometric Mean; for concentration at 0 h: 0 hr post dose; for concentration at 0.5 h: 0.5 hr post dose; for concentration at 1 h: 1 hr post dose; for concentration at 2 h: 2 hr post dose; for concentration at 4 h: 4 hr post dose; for concentration at 6 h: 6 hr post dose
Method: Blood samples were collected for determining DG-031 concentrations in a subset of patients (n=22). Samples were collected just prior to dosing and at 0.5, 1, 2, 4, and 6 hours following administration of DG-031 500 mg BID or TID.

[2] = Study DG-031-204: serum creatinine; conditions: both 500 mg BID and 500 mg TID groups
Method: as §1
Liver function tests (AST, ALT, GGT) were assessed weekly during study drug administration and two weeks after dosing. […] Serum creatinine (Cr) was measured weekly during study drug administration and two weeks after dosing. In both the 500 mg BID and 500 mg TID treatment groups, mean serum Cr concentrations increased 4-5% relative to baseline levels. At the 2-week follow up visit, mean serum Cr returned to baseline in the cohort treated for 4 weeks, but remained elevated in the group treated for 6 weeks. Creatine kinase (CK) measurements were obtained weekly during study drug administration and two weeks after dosing.

[3] = Effect of high fat meal on DG-031 pharmacokinetics; conditions: administration with a high fat meal
Method: In the context of treatment of a single individual, a steady state concentration may be expected to fluctuate from day-to-day with variations in the individual's diet, level activity, state of health, co-administration of other medications, and the like. DG-031 is preferably administered with food to improve adsorption. […] Alternatively, DG-031 is administered in the absence of food. The decision whether or not to administer with food may be based on the Cmax and Cmin observed following administration of a novel formulation where the Cmax and Cmin fall within the desired range. […] In this context, the steady state concentration for an individual refers to an average concentration taken at multiple time points, to adjust for such fluctuation.

## O=C(O)[C@@H](c1ccc(OCc2ccc3ccccc3n2)cc1)C1CCCC1 [DG-031, (R)-(+)-alpha-cyclopentyl-4-(2-quinolinylmethoxy)-Benzeneacetic acid]
MPO; 500 mg BID or TID, measured weekly
  Plasma MPO concentrations, change from baseline: No changes from baseline
MPO; 1000 mg (500 mg BID)
  Serum MPO (% change from baseline), mean response: +3%
MPO; 1500 mg (500 mg TID)
  Serum MPO (% change from baseline), mean response: −12%
[1]; 500 mg BID or TID, subset n=22
  DG-031 concentrations observed: up to 20.3 μg/mL
[1]; 500 mg BID, steady state
  Mean trough concentration: 4.3 µg/mL
  Observed mean peak concentration: 8.8 µg/mL
[1]; 12 hour period, BID dosing regimen
  Observed peak to trough fluctuation: 2-3 fold
[1]; 500 mg BID
  concentration at 0 h: 4300 ng/mL
  concentration at 0.5 h: 4700 ng/mL
  concentration at 1 h: 6100 ng/mL
  concentration at 2 h: 8600 ng/mL
  concentration at 4 h: 8800 ng/mL
  concentration at 6 h: 7000 ng/mL
[1]; 500 mg TID
  concentration at 0 h: 6900 ng/mL
  concentration at 0.5 h: 6800 ng/mL
  concentration at 1 h: 8500 ng/mL
  concentration at 2 h: 10100 ng/mL
  concentration at 4 h: 10000 ng/mL
  concentration at 6 h: 7400 ng/mL
[2]
  Increase of mean serum Cr concentrations relative to baseline: 4-5%
[3]
  half-life: shorter
